Data: patent US20110312956A1, “ARYLINDENOPYRIMIDINES WITH REDUCED hERG CHANNEL BINDING” (priority 2010, published 2011)
Read-outs that look alike come from different tables or passages of the source.

Experiments:
hERG = biological target: T1, hERG (Homo sapiens, UniProt Q12809); experiment: hERG channel binding assay ([3H]astemizole displacement, HEK293 membranes); settings: probe [3H]astemizole, at 10 μM, read-out: hERG binding (percent inhibition of [3H]astemizole binding)
T1 construct: expressed in transfected cells; host or cells: HEK293 cells, stably transfected; membranes used
Experimental: (§1) A hERG binding assay is a primary screening method used to evaluate potential activity of a compound against the hERG potassium channel. The affinity of a compound for the hERG channel is measured in vitro by examining displacement of tritiated-[^3H]astemizole, a high affinity hERG channel ligand. In this assay, membranes from HEK293 cells stably transfected with the human hERG channel cDNA are incubated with a range of concentrations of each test compound, vehicle (10% DMSO), or a positive control and [^3H]astemizole.
After a 1-hr incubation, the membranes are harvested onto GF/B filters, the filters dried and the radioactivity is measured. For each test compound, percent inhibition of [^3H]astemizole binding is calculated relative to control binding and IC50 values determined by linear regression. Each assay includes a positive control (i.e., Cisapride) that is tested in parallel with test compounds. At present, there is no gold standard preclinical test available to predict QT prolongation in humans. Therefore to assess potential cardiotoxicity, cardiovascular effects are evaluated preclinically in several different tests including the hERG channel binding assay.
hERG Channel Binding Assay
In the hERG channel binding assay, the ability of test compounds to displace ^3H-astemizole (a high affinity hERG channel ligand) is measured.
as §1, with “[^3H]astemizole. After a 1-hr incubation, the membranes are harvested onto GF/B filters, the filters dried and the radioactivity is measured.” for “[^3H]astemizole.”
For each test compound, percent inhibition of [^3H]astemizole binding is calculated relative to control binding and IC50 values determined by linear regression. Each assay includes a positive control (i.e., Cisapride) that is tested in parallel with test compounds.

[1] = biological target: T2, human A2a adenosine receptor (Homo sapiens, UniProt P29274); experiment: Ligand binding assay for adenosine A2a receptor ([3H]CGS21680, HEK293 plasma membrane)
T2 construct: purchased PerkinElmer RB-HA2a; host or cells: HEK293 cell plasma membranes

[2] = radioligand [3H]CGS21680, read-out: Ki A2a binding

T1 sequence (Q12809 whole entry): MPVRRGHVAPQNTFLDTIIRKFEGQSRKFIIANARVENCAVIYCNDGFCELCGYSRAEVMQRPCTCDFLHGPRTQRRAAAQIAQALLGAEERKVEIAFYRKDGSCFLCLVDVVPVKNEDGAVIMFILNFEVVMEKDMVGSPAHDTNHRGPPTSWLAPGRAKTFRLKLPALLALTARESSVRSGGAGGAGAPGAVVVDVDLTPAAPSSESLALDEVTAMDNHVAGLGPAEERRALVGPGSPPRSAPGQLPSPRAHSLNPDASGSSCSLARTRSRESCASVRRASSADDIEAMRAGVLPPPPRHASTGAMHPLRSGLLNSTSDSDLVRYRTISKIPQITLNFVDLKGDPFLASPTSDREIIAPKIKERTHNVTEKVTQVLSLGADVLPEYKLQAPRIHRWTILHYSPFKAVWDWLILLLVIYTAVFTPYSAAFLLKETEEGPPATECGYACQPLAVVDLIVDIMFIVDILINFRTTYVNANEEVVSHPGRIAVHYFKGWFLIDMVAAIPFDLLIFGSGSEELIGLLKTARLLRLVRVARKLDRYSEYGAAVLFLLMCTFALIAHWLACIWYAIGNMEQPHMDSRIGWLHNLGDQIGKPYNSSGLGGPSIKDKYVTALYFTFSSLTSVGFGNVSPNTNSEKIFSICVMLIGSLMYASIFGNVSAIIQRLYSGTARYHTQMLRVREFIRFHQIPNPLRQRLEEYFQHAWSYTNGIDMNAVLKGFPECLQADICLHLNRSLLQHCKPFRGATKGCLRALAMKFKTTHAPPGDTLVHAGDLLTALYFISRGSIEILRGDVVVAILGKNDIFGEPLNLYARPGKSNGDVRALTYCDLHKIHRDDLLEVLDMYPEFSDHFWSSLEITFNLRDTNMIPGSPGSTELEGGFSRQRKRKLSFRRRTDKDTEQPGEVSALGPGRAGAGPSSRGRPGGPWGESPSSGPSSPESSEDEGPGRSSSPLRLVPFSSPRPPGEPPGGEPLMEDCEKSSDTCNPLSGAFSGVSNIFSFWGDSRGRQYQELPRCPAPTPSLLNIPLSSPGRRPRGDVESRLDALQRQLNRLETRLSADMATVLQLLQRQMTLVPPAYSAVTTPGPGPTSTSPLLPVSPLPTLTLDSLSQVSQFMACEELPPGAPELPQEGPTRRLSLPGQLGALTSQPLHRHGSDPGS
T2 sequence (P29274 whole entry): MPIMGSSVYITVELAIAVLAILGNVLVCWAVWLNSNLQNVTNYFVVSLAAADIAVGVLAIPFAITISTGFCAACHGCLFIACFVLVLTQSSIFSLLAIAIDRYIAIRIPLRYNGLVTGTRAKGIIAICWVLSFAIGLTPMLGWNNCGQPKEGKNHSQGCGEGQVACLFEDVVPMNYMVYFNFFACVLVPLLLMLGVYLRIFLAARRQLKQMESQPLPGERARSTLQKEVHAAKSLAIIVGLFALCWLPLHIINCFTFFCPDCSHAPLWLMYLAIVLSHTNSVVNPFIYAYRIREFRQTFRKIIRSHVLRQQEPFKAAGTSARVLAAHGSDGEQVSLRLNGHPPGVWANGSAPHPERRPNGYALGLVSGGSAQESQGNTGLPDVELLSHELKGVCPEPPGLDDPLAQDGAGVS

| Compound | inhibition at 1 h, 10 µM (hERG) [%] | Ki [1, 2] [nM] | Ki [1] [nM] |
| --- | --- | --- | --- |
| Nc1nc(-c2ccccc2)c2c(n1)-c1cc(CN3CCOCC3)ccc1C2=O [Compound 6] | -12.5 | 5.39 |  |
| Nc1nc(-c2ccccc2)c2c(n1)-c1cc(CNCc3ccccn3)ccc1C2=O [Compound 2] | 34.5 |  | 10.2 |
| Nc1nc(-c2ccccc2)c2c(n1)-c1cc(CN3CCCC3)ccc1C2=O [Compound 1] | 1.4 | 6.69 |  |
| Nc1nc(-c2ccccc2)c2c(n1)-c1cc(CN3CCC(=O)CC3)ccc1C2=O [Compound 3] | 13.8 | 9.4 |  |
| Nc1nc(-c2ccccc2)c2c(n1)-c1cc(CN3CCC(O)CC3)ccc1C2=O [Compound 5] | 26.2 | 5.8 |  |
| Nc1nc(-c2ccccc2)c2c(n1)-c1cc(CN3CCC(O)C3)ccc1C2=O (stereo not drawn) [Compound 4] | 27.8 | 7.9 |  |
